In US5358951A, “Angiotensin II receptor blocking 2, 3, 6 substituted quinazolinones” (American Cyanamid Company, priority 1993, dated 1994):

Tested on: vasopressor response of angiotensin II
Experiment: AII Challenge: antagonism of angiotensin II vasopressor response;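 on Response Average Change: post-dose Angiotensin II-evoked rise in systolic blood pressure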
Assay type: in vivo
Details: 3 mg/kg I.V.; for inhibition in vivo at 3 mg/kg: Rattus norvegicus, iv
Description: Conscious Male Okamoto-Aoki SHR, 16-20 weeks old, weighing approximately 330 g are purchased from Charles River Labs (Wilmington, Mass.). Conscious rats are restrained in a supine position with elastic tape. The area at the base of the tail is locally anesthetized by subcutaneous infiltration with 2% procaine. The ventral caudal artery and vein are isolated, and a cannula made of polyethylene (PE) 10-20 tubing (fused together by heat) is passed into the lower abdominal aorta and vena cava, respectively. The cannula is secured, heparinized (1,000 I.U./ml), sealed and the wound is closed. The animals are placed in plastic restraining cages in an upright position. The cannula is attached to a Statham P23 Db pressure transducer, and pulsatile blood pressure is recorded to 10-15 minutes with a Gould Brush recorder. (Chan et al., (Drug Development Res., 18:75-94, 1989). Angiotensin II (human sequence, Sigma Chem. Co., St. Louis, Mo.) of 0.05 and 0.1 ug/kg i.v. is injected into all rats (predosing response). Then a test compound, vehicle or a known angiotensin II antagonist is administered i.v., i.p. or orally to each set of rats. The two doses of angiotensin II are given to each rat again at 30, 60, 90, 120, 180, 240 and 300 minutes post dosing the compound or vehicle. The vasopressor response of angiotensin II is measured for the increase in systolic blood pressure in mmHg. The percentage of antagonism or blockade of the vasopressor response of angiotensin II by a compound is calculated using the vasopressor response (increase in systolic blood pressure) of angiotensin II of each rat predosing the compound as 100%.

[1] = AII 0.05 mcg/kg IV, 30 min post dose
[2] = AII 0.05 mcg/kg IV, 60 min post dose
[3] = AII 0.05 mcg/kg IV, 90 min post dose
[4] = AII 0.05 mcg/kg IV, 120 min post dose
[5] = AII 0.05 mcg/kg IV, 180 min post dose
[6] = AII 0.1 mcg/kg IV, 30 min post dose
[7] = AII 0.1 mcg/kg IV, 60 min post dose
[8] = AII 0.1 mcg/kg IV, 90 min post dose
[9] = AII 0.1 mcg/kg IV, 120 min post dose
[10] = AII 0.1 mcg/kg IV, 180 min post dose
[11] = 0.5 h, AII 0.05 mcg/kg IV, 30 min post dose
[12] = 0.5 h, AII 0.1 mcg/kg IV, 30 min post dose
[13] = 1 h, AII 0.05 mcg/kg IV, 60 min post dose
[14] = 1 h, AII 0.1 mcg/kg IV, 60 min post dose
[15] = 2 h, AII 0.05 mcg/kg IV, 120 min post dose
[16] = 2 h, AII 0.1 mcg/kg IV, 120 min post dose
[17] = 3 h, AII 0.05 mcg/kg IV, 180 min post dose
[18] = 3 h, AII 0.1 mcg/kg IV, 180 min post dose
[19] = […], AII 0.05 mcg/kg IV, 90 min post dose
[20] = […], AII 0.1 mcg/kg IV, 90 min post dose
[21] = AII 0.05 mcg/kg IV, 240 min post dose
[22] = AII 0.05 mcg/kg IV, 300 min post dose
[23] = AII 0.1 mcg/kg IV, 240 min post dose
[24] = AII 0.1 mcg/kg IV, 300 min post dose
[25] = 4 h, AII 0.05 mcg/kg IV, 240 min post dose
[26] = 4 h, AII 0.1 mcg/kg IV, 240 min post dose
[27] = 5 h, AII 0.05 mcg/kg IV, 300 min post dose
[28] = 5 h, AII 0.1 mcg/kg IV, 300 min post dose

## CCCCc1nc2ccc([C@H]3C[C@]4(C)CCCCN4O3)cc2c(=O)n1Cc1ccc(-c2ccccc2-c2nnn[nH]2)cc1 (relative stereo) [Example 65]
[1]
  Response Average Change: 2.5 mmHg
[2]
  Response Average Change: 15.5 mmHg
[3]
  Response Average Change: 11 mmHg
[4]
  Response Average Change: 8 mmHg
[5]
  Response Average Change: 25 mmHg
[6]
  Response Average Change: 2.5 mmHg
[7]
  Response Average Change: 11 mmHg
[8]
  Response Average Change: 16.5 mmHg
[9]
  Response Average Change: 12.5 mmHg
[10]
  Response Average Change: 17.5 mmHg
[11]
  inhibition in vivo at 3 mg/kg: 95%
[12]
  inhibition in vivo at 3 mg/kg: 95%
[13]
  inhibition in vivo at 3 mg/kg: 66%
[14]
  inhibition in vivo at 3 mg/kg: 77%
[15]
  inhibition in vivo at 3 mg/kg: 82%
[16]
  inhibition in vivo at 3 mg/kg: 74%
[17]
  inhibition in vivo at 3 mg/kg: 45%
[18]
  inhibition in vivo at 3 mg/kg: 64%
[19]
  inhibition in vivo at 3 mg/kg: 76%
[20]
  inhibition in vivo at 3 mg/kg: 66%

## CCCCc1nc2ccc([C@@]3(C)C[C@@H]4CCCCN4O3)cc2c(=O)n1Cc1ccc(-c2ccccc2-c2nnn[nH]2)cc1 (relative stereo) [Example 67, Cis-2-Butyl-6-(hexahydro-2-methyl-2H-isoxazolo[2,3-a]pyridin-2-yl)-3-[[2'-(1H-tetrazol-5-yl)[1,1'-biphenyl]-4-yl]methyl]-4(3H)-quinazolinone]
[1]
  Response Average Change: 20 mmHg
[2]
  Response Average Change: 7.5 mmHg
[3]
  Response Average Change: 7.5 mmHg
[4]
  Response Average Change: 12.5 mmHg
[5]
  Response Average Change: 15 mmHg
[21]
  Response Average Change: 7.5 mmHg
[22]
  Response Average Change: 14 mmHg
[6]
  Response Average Change: 14 mmHg
[7]
  Response Average Change: 15 mmHg
[8]
  Response Average Change: 12.5 mmHg
[9]
  Response Average Change: 10 mmHg
[10]
  Response Average Change: 11.5 mmHg
[23]
  Response Average Change: 11 mmHg
[24]
  Response Average Change: 17.5 mmHg
[11]
  inhibition in vivo at 3 mg/kg: 61%
[12]
  inhibition in vivo at 3 mg/kg: 77%
[13]
  inhibition in vivo at 3 mg/kg: 85%
[14]
  inhibition in vivo at 3 mg/kg: 75%
[15]
  inhibition in vivo at 3 mg/kg: 76%
[16]
  inhibition in vivo at 3 mg/kg: 83%
[17]
  inhibition in vivo at 3 mg/kg: 71%
[18]
  inhibition in vivo at 3 mg/kg: 81%
[25]
  inhibition in vivo at 3 mg/kg: 85%
[26]
  inhibition in vivo at 3 mg/kg: 82%
[27]
  inhibition in vivo at 3 mg/kg: 73%
[28]
  inhibition in vivo at 3 mg/kg: 71%
[19]
  inhibition in vivo at 3 mg/kg: 85%
[20]
  inhibition in vivo at 3 mg/kg: 79%

## CCCCc1nc2ccc([C@]3(C)C[C@@H]4CCCCN4O3)cc2c(=O)n1Cc1ccc(-c2ccccc2-c2nnn[nH]2)cc1 (relative stereo) [Example 68, Trans-2-Butyl-6-(hexahydro-2-methyl-2H-isoxazolo[2,3-a]pyridin-2-yl)-3-[[2'-(1H-tetrazol-5-yl)[1,1'-biphenyl]-4-yl]methyl]-4(3H)-quinazolinone]
[1]
  Response Average Change: 2.5 mmHg
[2]
  Response Average Change: 2.5 mmHg
[3]
  Response Average Change: 7.5 mmHg
[4]
  Response Average Change: 11 mmHg
[5]
  Response Average Change: 10 mmHg
[21]
  Response Average Change: 20 mmHg
[22]
  Response Average Change: 10 mmHg
[6]
  Response Average Change: 5 mmHg
[7]
  Response Average Change: 9 mmHg
[8]
  Response Average Change: 9 mmHg
[9]
  Response Average Change: 10 mmHg
[10]
  Response Average Change: 20 mmHg
[23]
  Response Average Change: 17.5 mmHg
[24]
  Response Average Change: 22.5 mmHg
[11]
  inhibition in vivo at 3 mg/kg: 95%
[12]
  inhibition in vivo at 3 mg/kg: 91%
[13]
  inhibition in vivo at 3 mg/kg: 95%
[14]
  inhibition in vivo at 3 mg/kg: 84%
[15]
  inhibition in vivo at 3 mg/kg: 79%
[16]
  inhibition in vivo at 3 mg/kg: 82%
[17]
  inhibition in vivo at 3 mg/kg: 81%
[18]
  inhibition in vivo at 3 mg/kg: 64%
[25]
  inhibition in vivo at 3 mg/kg: 61%
[26]
  inhibition in vivo at 3 mg/kg: 69%
[27]
  inhibition in vivo at 3 mg/kg: 81%
[28]
  inhibition in vivo at 3 mg/kg: 60%
[19]
  inhibition in vivo at 3 mg/kg: 85%
[20]
  inhibition in vivo at 3 mg/kg: 84%

## CCCCc1nc2ccc([C@]3(C)C[C@@H]4CCC(C)(C)N4O3)cc2c(=O)n1Cc1ccc(-c2ccccc2-c2nnn[nH]2)cc1 (relative stereo) [Example 69, Trans-2-Butyl-6-(hexahydro-2,6,6-trimethylpyrrolo[1,2-b]isoxazol-2-yl)-3-[[2'-(1H-tetrazol-5-yl)[1,1'-biphenyl]-4-yl]methyl]-4(3H)-quinazolinone]
[1]
  Response Average Change: 0 mmHg
[2]
  Response Average Change: 2.5 mmHg
[3]
  Response Average Change: 2.5 mmHg
[4]
  Response Average Change: 5 mmHg
[5]
  Response Average Change: 2.5 mmHg
[21]
  Response Average Change: 5 mmHg
[22]
  Response Average Change: 10 mmHg
[6]
  Response Average Change: 0 mmHg
[7]
  Response Average Change: 0 mmHg
[8]
  Response Average Change: 25 mmHg
[9]
  Response Average Change: 2.5 mmHg
[10]
  Response Average Change: 0 mmHg
[23]
  Response Average Change: 7.5 mmHg
[24]
  Response Average Change: 12.5 mmHg
[11]
  inhibition in vivo at 3 mg/kg: 100%
[12]
  inhibition in vivo at 3 mg/kg: 100%
[13]
  inhibition in vivo at 3 mg/kg: 92%
[14]
  inhibition in vivo at 3 mg/kg: 100%
[15]
  inhibition in vivo at 3 mg/kg: 83%
[16]
  inhibition in vivo at 3 mg/kg: 94%
[17]
  inhibition in vivo at 3 mg/kg: 92%
[18]
  inhibition in vivo at 3 mg/kg: 100%
[25]
  inhibition in vivo at 3 mg/kg: 83%
[26]
  inhibition in vivo at 3 mg/kg: 81%
[27]
  inhibition in vivo at 3 mg/kg: 67%
[28]
  inhibition in vivo at 3 mg/kg: 69%
[19]
  inhibition in vivo at 3 mg/kg: 92%
[20]
  inhibition in vivo at 3 mg/kg: 94%
